Tests used:
[1] = molecular target: T1, serotonin reuptake sites (Rattus norvegicus, UniProt P31652); test: Determination of the affinity for serotonin reuptake sites ([3H]-paroxetine competition); type: binding; conditions: frontal cortex membranes, 1.0 nM [3H]-paroxetine, 2 hours at 25° C., pH 7.4; read-out: pKi, serotonin reuptake sites (converted)
T1 construct: The membranes are prepared from frontal cortex of rate; from tissue; host or cells: frontal cortex membranes (rat, printed 'rate')
Method: Determination of the affinity for serotonin reuptake sites
The incubation buffer contains […] TRIS-HCl (pH 7.4), 120 mM NaCl and 5 mM KCl. The non-specific binding is determined using 10 μM citalopram. At the end of the incubation, the incubation medium is filtered and washed three times with 5 ml of cooled buffer. The radioactivity retained on the filters is determined by liquid scintillation counting. The binding isotherms are analysed by non-linear regression to determine the IC50 values. Those values are converted into a dissociation constant (Ki) using the Cheng-Prusoff equation: […]
(§1) The results are expressed in pKi (-log Ki).

[2] = test system: mouse; test: Suspension-by-the-tail test in the mouse; type: in vivo; conditions: for Immobility: 6 minutes of the test
Text: Suspension-by-the-tail test in the mouse
In this variation of the forced swimming test, the state of despair is induced in the mouse by suspending it head down by its tail. Placed in that uncomfortable situation, the animal struggles vigorously to start with and then adopts an immobile posture. Antidepressant products reduce the duration of immobility of the animal.
The animals are male NMRI (IFFA-CREDO) mice (22-26 g) which are housed, in groups of 20, in transparent plastic cages (59×38×20 cm) on sawdust, with food and drink as desired. On the day of the test, each mouse is placed in a separate cage as soon as it has been treated (sub-cutaneously) with the product or the solvent. Thirty minutes later, the animal is suspended by the tail from a hook using an adhesive tape attached to the tail. The hook is connected to a tension sensor which transmits all the animal's movements to a central processor ([…]-TST 1 system, ITEM-LABO, France). The total duration (sec.) of immobility of the animal during the 6 minutes of the test is recorded automatically.
The differences in the duration of immobility between the treated groups (product) and the control group (solvent) are analysed statistically by ANOVA followed by Dunnett's test, wherein p<0.05.

[3] = test system: mouse; test: Forced swimming test in the mouse; type: in vivo; conditions: for Duration of immobility: last 4 minutes (T2-T6)
Method: Forced swimming test in the mouse (Porsolt et al., 1977)
The forced swimming test in the mouse consists of inducing a state of despair in the animal by placing it for 6 minutes in a cylinder full of water, from which it cannot escape. The naive animal struggles vigorously for the first few minutes and then adopts an immobile posture for the last few minutes of the test. Antidepressant products reduce the duration of immobility of the animal during the test.
the animals are male CD (IFFA-CREDO) mice (22-26 g) which, on the day before the test, are placed individually in transparent plastic cages (25×15×14 cm) on sawdust, with food and drink as desired. On the day of the test, 30 minutes after treatment (product or solvent, administered sub-cutaneously), each mouse is plunged for 6 minutes (T0-T6) in a glass cylinder (23.5 cm in height, 11.5 cm in diameter) filled to a height of 6 centimeters with water maintained at 24±0.5° C. The total duration of immobility (sec.) of the animal during the last 4 minutes of the test (T2-T6) is observed: a mouse is considered to be immobile when it is floating in the water, making only small movements to keep its head out of the water.
The differences between the treated groups (product) and the control group (solvent) are evaluated statistically by variance analysis followed by Dunnett's test wherein p<0.05.

[4] = molecular target: T2, noradrenaline reuptake sites (Rattus norvegicus, UniProt Q63380); test: Determination of the affinity for noradrenaline reuptake sites ([3H]-nisoxetine competition); type: binding; conditions: frontal cortex membranes, 2 nM [3H]-nisoxetine, 4 hours at 4° C., pH 7.4; read-out: pKi, noradrenaline reuptake sites (converted)
T2 construct: The membranes are prepared from frontal cortex of rat; from tissue; host or cells: rat frontal cortex membranes
Method: The binding isotherms are analysed by non-linear regression to determine the IC50 values. Those values are converted into a dissociation constant (Ki) using the Cheng-Prusoff equation: […]
as §1

T1 sequence (P31652 whole entry): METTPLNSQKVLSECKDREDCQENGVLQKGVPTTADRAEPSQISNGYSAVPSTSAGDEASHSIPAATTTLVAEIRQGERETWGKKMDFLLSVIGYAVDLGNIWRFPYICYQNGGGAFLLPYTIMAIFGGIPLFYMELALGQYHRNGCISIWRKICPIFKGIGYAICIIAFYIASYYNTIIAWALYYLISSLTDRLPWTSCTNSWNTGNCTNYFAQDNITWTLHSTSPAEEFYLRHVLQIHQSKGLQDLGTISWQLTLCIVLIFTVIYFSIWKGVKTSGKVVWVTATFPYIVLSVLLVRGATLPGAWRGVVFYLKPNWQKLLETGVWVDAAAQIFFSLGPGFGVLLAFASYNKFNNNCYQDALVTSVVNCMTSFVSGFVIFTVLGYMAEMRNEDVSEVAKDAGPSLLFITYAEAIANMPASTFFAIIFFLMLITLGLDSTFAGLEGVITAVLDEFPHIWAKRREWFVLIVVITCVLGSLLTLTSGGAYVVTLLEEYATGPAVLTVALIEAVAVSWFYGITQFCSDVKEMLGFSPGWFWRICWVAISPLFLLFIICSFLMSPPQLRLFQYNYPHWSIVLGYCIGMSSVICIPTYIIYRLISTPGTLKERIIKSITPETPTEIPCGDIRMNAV
T2 sequence (Q63380 1-617): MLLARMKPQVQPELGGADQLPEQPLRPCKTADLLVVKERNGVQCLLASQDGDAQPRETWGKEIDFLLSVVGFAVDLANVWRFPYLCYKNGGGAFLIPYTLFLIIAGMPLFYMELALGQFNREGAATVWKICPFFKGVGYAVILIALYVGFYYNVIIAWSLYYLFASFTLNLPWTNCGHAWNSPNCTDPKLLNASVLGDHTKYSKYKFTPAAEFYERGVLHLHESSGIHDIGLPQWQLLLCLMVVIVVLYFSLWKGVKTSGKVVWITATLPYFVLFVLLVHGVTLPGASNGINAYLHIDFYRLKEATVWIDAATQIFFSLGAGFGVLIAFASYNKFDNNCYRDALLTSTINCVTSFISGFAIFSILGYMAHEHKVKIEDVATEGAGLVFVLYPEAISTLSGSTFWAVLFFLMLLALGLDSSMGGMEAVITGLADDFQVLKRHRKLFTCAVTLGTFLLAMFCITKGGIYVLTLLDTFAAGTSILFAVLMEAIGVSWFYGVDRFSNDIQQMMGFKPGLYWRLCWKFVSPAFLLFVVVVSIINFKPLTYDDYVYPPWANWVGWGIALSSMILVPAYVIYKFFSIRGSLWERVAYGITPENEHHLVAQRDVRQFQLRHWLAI

## COc1ccc2c(c1)C(CN(C)C)(C1(O)CCCCC1)C2 (single isomer, unassigned; (-)) [Example 8, (-)-Isomer of 1-(N,N-dimethylaminomethyl)-1-(1-hydroxycyclohex-1-yl)-5-methoxybenzocyclobutane]
[1]
  Ki: 2 nM

## COc1ccc2c(c1)C(CN(C)C)(C1(O)CCCCC1)C2 (stereo not drawn) [Example 3, 1-(N,N-Dimethylaminomethyl)-1-(1-hydroxycyclohex-1-yl)-5-methoxybenzocyclobutane]
[2]; 0.63 mg/kg s.c.
  Immobility, %/control: 88%
  Immobility: 70.4 ± 13.5 s
[2]; 2.5 mg/kg s.c.
  Immobility, %/control: 51%
  Immobility: 41.1 ± 9.6 s
[2]; 10.0 mg/kg s.c.
  Immobility, %/control: 35%
[2]; 10.0 mg/kg s.c., * p < 0.05
  Immobility: 27.8 ± 9.6 s

## COc1ccc2c(c1)CC2(CN(C)C)C1(O)CCCCC1 (stereo not drawn) [Example 4, 1-(N,N-Dimethylaminomethyl)-1-(1-hydroxycyclohex-1-yl)-4-methoxybenzocyclobutane]
[3]; 0.63 mg/kg s.c.
  Duration of immobility, %/control: 94%
  Duration of immobility: 157.3 ± 18.9 s
[3]; 2.5 mg/kg s.c.
  Duration of immobility, %/control: 61%
  Duration of immobility: 101.6 ± 57.3 s
[3]; 10.0 mg/kg s.c.
  Duration of immobility, %/control: 4%
[3]; 10.0 mg/kg s.c., * p < 0.05
  Duration of immobility: 6.1 ± 6.1 s

## COc1cccc2c1C(CN(C)C)(C1(O)CCCCC1)C2 (stereo not drawn) [Example 9, 1-(N,N-Dimethylaminomethyl)-1-(1-hydroxycyclohex-1-yl)-6-methoxybenzocyclobutane]
[4]
  Ki: 56.2 nM

## CNCCC(Oc1ccc(C(F)(F)F)cc1)c1ccccc1 (stereo not drawn) [fluoxetine, reference compound]
[3]; 2.5 mg/kg s.c.
  Duration of immobility, %/control: 94%
[3]; 10.0 mg/kg s.c.
  Duration of immobility, %/control: 75%
[3]; 40.0 mg/kg s.c.
  Duration of immobility, %/control: 73%
[2]; 40.0 mg/kg s.c.
  Immobility, %/control: 91%
  Immobility: 69.9 ± 17.8 s
[2]; 80.0 mg/kg s.c.
  Immobility, %/control: 110%
  Immobility: 84.3 ± 12.4 s
